Common to all, as to assay: Kinase selectivity, scanMAX Kinase assay panel (DiscoverX), % control at 1 uM
Holding throughout (assay type): binding

Assay [1] has as its target T1, scanMAX Kinase assay panel (Homo sapiens, UniProt P17612).
T1 construct: purchased DiscoverX
To be noted: PKAC-alpha; 1 uM; read-out: Percent Control (%). In short, it runs like this:
(§1)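 Single-point screen at 1 uM compound in DMSO. Lower % control means stronger inhibition, with the cutoff for activity set at <35%.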

For assay [2], the target named is T2, scanMAX Kinase assay panel (Homo sapiens, UniProt Q9BVS4).
T2 construct: purchased DiscoverX
Conditions: RIOK2; 1 uM; read-out: Percent Control (%). In short, it runs like this: as §1

In assay [3] the target is T3, scanMAX Kinase assay panel (Homo sapiens, UniProt Q86UE8).
T3 construct: purchased DiscoverX
To be noted: TLK2; 1 uM; read-out: Percent Control (%). In short, it runs like this:
as §1

The target in assay [4] is T4, scanMAX Kinase assay panel (Homo sapiens, UniProt P42336, E545K).
T4 construct: purchased DiscoverX
Conditions: PIK3CA (E545K); 1 uM; read-out: Percent Control (%). In short, it runs like this: as §1

Assay [5] deals with T5, scanMAX Kinase assay panel (Homo sapiens, UniProt Q9Y463).
T5 construct: purchased DiscoverX
Conditions: DYRK1B; 1 uM; read-out: Percent Control (%). Summed up: as §1

The target in assay [6] is T6, scanMAX Kinase assay panel (Homo sapiens, UniProt Q9H2X6).
T6 construct: purchased DiscoverX
Conditions: HIPK2; 1 uM; read-out: Percent Control (%). Summed up: as §1

Assay [7] concerns the target T7, scanMAX Kinase assay panel (Homo sapiens, UniProt P23458).
T7 construct: purchased DiscoverX
Conditions: 1 uM, read-out: Percent Control (%). Summed up:
as §1

Assay [8] concerns the target T8, scanMAX Kinase assay panel (Homo sapiens, UniProt P36888, D835Y).
T8 construct: purchased DiscoverX
T8 sequence (P36888 27-993 D835Y): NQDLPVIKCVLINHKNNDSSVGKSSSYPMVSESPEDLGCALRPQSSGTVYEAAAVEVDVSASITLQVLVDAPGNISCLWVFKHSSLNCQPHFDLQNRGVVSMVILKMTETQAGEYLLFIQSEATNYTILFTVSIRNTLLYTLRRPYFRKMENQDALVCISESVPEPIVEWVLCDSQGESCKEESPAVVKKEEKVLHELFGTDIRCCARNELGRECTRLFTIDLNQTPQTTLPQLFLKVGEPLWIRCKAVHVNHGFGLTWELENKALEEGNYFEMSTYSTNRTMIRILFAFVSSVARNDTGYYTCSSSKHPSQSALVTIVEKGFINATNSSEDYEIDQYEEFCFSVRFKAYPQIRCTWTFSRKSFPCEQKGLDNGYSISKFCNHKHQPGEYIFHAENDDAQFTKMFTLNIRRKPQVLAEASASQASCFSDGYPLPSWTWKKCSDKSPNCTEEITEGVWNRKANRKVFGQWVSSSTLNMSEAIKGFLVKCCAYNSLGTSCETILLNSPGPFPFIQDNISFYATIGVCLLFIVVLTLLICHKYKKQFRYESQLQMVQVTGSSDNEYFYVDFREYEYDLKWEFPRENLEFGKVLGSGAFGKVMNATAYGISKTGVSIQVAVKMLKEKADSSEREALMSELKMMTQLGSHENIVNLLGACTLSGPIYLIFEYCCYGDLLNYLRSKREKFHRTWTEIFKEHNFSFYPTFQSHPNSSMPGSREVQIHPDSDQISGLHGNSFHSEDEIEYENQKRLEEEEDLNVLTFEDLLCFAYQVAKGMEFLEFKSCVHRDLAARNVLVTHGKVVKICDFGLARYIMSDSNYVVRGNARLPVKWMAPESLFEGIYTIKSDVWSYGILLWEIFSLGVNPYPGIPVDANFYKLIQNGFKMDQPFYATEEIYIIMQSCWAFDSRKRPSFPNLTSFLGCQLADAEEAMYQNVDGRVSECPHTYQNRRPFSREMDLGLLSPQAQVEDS
Conditions: FLT3 (D835Y); 1 uM; read-out: Percent Control (%). Summed up:
as §1

In assay [9] the target is T9, scanMAX Kinase assay panel (Homo sapiens, UniProt P0C264).
T9 construct: purchased DiscoverX
T9 sequence (P0C264 1-359): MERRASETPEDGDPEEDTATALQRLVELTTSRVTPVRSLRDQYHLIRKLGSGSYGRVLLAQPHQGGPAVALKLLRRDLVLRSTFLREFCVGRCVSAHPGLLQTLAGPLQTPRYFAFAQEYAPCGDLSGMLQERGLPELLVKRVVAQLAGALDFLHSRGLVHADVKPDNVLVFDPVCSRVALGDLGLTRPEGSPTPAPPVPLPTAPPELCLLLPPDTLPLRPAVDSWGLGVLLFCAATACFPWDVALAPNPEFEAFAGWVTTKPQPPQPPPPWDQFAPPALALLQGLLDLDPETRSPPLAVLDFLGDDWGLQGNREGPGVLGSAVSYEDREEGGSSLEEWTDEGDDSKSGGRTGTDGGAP
Conditions: SgK110; 1 uM; read-out: Percent Control (%). Summed up:
as §1

The target of assay [10] is T10, scanMAX Kinase assay panel (Homo sapiens, UniProt P06239).
T10 construct: purchased DiscoverX
Conditions: LCK; 1 uM; read-out: Percent Control (%). Summed up: as §1

Assay [11] has as its target T11, scanMAX Kinase assay panel (Homo sapiens, UniProt Q15831).
T11 construct: purchased DiscoverX
T11 sequence (Q15831 1-433): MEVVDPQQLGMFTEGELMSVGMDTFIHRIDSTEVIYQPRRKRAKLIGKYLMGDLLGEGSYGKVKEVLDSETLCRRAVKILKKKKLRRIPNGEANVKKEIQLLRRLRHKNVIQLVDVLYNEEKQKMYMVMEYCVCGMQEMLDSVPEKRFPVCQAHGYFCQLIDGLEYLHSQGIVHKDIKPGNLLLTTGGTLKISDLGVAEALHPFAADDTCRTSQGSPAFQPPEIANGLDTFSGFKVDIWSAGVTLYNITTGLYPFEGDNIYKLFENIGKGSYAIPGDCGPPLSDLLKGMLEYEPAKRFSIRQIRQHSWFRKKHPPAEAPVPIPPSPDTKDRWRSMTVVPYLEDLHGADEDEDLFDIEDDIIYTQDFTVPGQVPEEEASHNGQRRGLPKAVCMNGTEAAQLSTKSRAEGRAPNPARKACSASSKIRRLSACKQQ
To be noted: LKB1; 1 uM; read-out: Percent Control (%). Summed up:
as §1

Like-named read-outs stand apart in the source and are kept apart here.

T2 sequence (Q9BVS4 whole entry): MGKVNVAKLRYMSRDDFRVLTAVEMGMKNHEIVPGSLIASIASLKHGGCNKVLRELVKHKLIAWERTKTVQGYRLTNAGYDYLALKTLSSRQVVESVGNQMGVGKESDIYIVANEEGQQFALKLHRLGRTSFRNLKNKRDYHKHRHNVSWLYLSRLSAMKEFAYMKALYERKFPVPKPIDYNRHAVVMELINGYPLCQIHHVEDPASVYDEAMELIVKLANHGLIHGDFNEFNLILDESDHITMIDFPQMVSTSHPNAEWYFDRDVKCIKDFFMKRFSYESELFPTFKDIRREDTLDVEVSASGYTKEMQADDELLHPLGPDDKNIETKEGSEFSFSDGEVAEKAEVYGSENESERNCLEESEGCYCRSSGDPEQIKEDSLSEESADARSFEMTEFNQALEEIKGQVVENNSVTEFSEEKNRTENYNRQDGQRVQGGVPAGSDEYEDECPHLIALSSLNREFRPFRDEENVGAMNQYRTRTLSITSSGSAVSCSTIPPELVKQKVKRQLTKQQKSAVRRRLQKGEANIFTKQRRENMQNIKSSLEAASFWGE
T4 sequence (P42336 whole entry E545K): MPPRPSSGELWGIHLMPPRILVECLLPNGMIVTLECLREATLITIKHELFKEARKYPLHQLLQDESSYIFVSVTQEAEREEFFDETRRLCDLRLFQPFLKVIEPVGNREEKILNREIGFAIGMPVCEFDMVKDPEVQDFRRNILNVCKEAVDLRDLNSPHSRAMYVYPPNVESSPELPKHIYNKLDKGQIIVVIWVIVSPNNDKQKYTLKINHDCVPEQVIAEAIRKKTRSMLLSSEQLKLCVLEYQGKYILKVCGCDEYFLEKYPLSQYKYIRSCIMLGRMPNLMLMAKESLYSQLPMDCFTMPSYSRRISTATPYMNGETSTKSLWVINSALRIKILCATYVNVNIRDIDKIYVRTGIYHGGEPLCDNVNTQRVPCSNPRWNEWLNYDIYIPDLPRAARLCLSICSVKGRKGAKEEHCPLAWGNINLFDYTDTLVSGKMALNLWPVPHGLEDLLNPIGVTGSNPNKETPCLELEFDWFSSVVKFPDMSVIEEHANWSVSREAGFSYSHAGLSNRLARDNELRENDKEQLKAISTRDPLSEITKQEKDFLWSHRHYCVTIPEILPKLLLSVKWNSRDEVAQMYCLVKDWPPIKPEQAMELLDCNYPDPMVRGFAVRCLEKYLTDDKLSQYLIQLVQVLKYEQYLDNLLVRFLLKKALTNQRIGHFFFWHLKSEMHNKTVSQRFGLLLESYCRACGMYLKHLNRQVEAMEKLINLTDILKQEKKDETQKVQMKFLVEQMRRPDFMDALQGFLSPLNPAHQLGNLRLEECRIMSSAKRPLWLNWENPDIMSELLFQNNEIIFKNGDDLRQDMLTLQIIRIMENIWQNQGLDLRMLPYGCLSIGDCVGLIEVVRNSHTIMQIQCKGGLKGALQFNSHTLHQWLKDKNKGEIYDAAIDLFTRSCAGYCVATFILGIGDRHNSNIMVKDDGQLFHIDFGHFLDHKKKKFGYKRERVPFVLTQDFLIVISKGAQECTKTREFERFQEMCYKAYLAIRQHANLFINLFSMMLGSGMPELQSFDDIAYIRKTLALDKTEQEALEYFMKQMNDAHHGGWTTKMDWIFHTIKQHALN
T3 sequence (Q86UE8 whole entry): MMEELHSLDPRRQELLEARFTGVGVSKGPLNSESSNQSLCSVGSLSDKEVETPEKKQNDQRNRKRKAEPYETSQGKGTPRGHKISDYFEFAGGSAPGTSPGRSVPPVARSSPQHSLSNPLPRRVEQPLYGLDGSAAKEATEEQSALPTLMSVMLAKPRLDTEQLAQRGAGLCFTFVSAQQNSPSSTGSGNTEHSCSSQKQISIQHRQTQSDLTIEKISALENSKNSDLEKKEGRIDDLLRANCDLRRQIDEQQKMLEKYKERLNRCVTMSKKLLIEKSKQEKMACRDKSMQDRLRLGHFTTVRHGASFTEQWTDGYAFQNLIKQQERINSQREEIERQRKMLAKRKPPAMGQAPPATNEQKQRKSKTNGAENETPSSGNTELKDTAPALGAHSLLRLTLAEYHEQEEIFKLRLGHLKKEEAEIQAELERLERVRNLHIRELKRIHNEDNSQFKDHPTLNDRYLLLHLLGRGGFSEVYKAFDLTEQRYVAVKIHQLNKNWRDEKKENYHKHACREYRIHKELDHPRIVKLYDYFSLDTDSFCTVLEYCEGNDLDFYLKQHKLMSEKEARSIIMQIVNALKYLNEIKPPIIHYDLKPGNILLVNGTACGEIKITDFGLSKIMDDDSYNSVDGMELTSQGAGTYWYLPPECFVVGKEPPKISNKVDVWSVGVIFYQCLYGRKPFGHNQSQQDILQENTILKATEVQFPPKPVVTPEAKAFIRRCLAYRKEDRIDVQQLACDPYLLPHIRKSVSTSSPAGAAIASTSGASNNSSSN
T10 sequence (P06239 whole entry): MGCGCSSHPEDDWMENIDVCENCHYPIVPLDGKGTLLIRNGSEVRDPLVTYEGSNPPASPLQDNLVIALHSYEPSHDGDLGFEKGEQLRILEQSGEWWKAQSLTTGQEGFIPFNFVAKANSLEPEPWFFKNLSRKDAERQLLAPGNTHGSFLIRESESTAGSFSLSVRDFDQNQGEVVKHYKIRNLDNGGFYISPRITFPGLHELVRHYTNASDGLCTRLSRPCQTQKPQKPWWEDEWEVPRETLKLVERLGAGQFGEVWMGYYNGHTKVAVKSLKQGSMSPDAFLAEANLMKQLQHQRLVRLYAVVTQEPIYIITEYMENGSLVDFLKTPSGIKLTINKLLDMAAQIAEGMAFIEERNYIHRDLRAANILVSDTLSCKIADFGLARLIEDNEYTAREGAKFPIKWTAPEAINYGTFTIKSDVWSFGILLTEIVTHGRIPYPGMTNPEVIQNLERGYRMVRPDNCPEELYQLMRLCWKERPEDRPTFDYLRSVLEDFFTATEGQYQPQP
T7 sequence (P23458 whole entry): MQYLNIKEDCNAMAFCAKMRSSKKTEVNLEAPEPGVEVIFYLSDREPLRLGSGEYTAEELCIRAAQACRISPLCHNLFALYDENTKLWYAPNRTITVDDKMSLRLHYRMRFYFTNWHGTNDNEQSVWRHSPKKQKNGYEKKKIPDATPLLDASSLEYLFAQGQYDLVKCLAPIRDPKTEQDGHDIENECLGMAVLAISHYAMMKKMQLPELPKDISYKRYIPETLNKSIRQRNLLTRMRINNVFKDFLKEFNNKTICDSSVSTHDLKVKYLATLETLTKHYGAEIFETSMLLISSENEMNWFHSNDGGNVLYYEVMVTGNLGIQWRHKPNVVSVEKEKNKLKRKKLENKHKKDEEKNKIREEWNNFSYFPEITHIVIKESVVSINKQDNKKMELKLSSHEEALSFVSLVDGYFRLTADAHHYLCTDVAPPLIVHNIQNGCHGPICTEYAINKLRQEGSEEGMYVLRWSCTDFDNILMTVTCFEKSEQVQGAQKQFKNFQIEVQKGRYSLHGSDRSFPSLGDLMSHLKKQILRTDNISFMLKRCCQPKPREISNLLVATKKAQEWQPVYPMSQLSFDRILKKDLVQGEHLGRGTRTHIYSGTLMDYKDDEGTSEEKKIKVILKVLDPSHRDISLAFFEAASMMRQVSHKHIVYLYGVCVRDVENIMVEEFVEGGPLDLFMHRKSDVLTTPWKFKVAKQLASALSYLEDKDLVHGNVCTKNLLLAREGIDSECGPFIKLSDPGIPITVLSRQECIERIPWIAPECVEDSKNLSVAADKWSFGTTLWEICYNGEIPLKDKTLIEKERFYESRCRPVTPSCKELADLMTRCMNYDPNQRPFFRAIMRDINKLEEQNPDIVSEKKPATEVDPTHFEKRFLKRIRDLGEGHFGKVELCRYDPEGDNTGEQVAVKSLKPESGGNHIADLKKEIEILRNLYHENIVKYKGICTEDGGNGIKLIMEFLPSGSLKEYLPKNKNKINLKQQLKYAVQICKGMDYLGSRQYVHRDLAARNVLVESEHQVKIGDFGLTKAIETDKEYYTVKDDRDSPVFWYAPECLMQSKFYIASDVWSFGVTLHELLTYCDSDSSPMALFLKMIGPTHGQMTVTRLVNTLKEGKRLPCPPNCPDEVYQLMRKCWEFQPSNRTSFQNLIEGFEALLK
T5 sequence (Q9Y463 whole entry): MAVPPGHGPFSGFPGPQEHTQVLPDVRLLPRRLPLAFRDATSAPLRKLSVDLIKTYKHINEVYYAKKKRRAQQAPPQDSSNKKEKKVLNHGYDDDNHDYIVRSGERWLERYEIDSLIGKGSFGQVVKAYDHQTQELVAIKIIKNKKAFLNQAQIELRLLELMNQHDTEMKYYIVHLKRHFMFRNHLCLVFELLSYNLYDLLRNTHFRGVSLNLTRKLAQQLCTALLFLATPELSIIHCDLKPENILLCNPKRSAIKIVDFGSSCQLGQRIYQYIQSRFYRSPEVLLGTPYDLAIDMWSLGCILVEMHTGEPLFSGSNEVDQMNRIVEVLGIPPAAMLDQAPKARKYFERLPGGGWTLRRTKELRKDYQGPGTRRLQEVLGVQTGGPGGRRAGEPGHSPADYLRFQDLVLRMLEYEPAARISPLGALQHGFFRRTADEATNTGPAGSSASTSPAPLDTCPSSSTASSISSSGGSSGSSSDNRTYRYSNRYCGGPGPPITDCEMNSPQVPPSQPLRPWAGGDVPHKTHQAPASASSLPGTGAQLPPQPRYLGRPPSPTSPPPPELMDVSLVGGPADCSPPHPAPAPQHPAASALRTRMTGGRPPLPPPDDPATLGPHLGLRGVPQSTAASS

As to `Cc1ccc(C(=O)Nc2ccc(CN3CCN(C)CC3)c(C(F)(F)F)c2)cc1C#Cc1cnc2c(Nc3cnn(C)c3)cccn12` [Example 1, 4-methyl-3-((8-((1-methyl-1H-pyrazol-4-yl)amino)imidazo[1,2-a]pyridin-3-yl)ethynyl)-N-(4-((4-methylpiperazin-1-yl)methyl)-3-(trifluoromethyl)phenyl)benzamide], the remaining binding at 1 µM in assay [1] was 35%; in [2] it was 88%; in [3], 86%; in assay [4] it was 81%; in [5], 93%; in [6], 61%. Moreover, the remaining binding at 1 µM stood at 17% in [7] (JAK1 (JH1domain-catalytic)); 70% in assay [7] (JAK1 (JH2domain-pseudokinase)); 5% in assay [8]; 95% in [9]; 0% in [10]; 98% in assay [11].
`Cc1cn(-c2cc(NC(=O)c3ccc(C)c(C#Cc4cnc5c(Nc6cnn(C)c6)cccn45)c3)cc(C(F)(F)F)c2)cn1` [Example 12, 4-methyl-N-(3-(4-methyl-1H-imidazol-1-yl)-5-(trifluoromethyl)phenyl)-3-((8-((1-methyl-1H-pyrazol-4-yl)amino)imidazo[1,2-a]pyridin-3-yl)ethynyl)benzamide]: the remaining binding at 1 µM turned out to be 93% in assay [1]; 100% in [2]; 97% in [3]; 77% in assay [4]; 100% in assay [5]; 100% in assay [6]. Moreover, the remaining binding at 1 µM in assay [7] (JAK1 (JH1domain-catalytic)) was found to be 78%; in [7] (JAK1 (JH2domain-pseudokinase)) it was 44%; in [8] it was 14%; in assay [9], 81%; in assay [10] it was 0%; in assay [11] it was 85%.
In the case of `Cc1ccc(NC(=O)C2(C(=O)Nc3ccc(F)cc3)CC2)cc1C#Cc1cnc2c(Nc3cnn(C(C)C)c3)cccn12` [Example 78], the remaining binding at 1 µM in [1] was 100%; in [2] it was 100%; in [3], 100%; in [4] it was 92%; in assay [5], 99%; in assay [6], 100%. Further, the remaining binding at 1 µM in assay [7] (JAK1 (JH1domain-catalytic)) was 92%; in [7] (JAK1 (JH2domain-pseudokinase)), 100%; in assay [8], 79%; in [9] it was 100%; in assay [10], 40%; in assay [11], 100%.

The record behind these values is patent US10870647B2, “Imidazopyridine derivative, method for preparing same, and pharmaceutical composition containing same as active ingredient for preventing or treating cancer” (DAEGU-GYEONGBUK MEDICAL INNOVATION FOUNDATION, priority 2016, dated 2020).
